SMILES strings stand for the structures.

Six compounds from patent US7351728B2, “Oxazolyl-aryloxyacetic acid derivatives and their use as PPAR agonists” (Eli Lilly and Company, priority 2003, dated 2008) can be followed below.

Series [1] concerns db/db mice. The experiment in a line: Evaluation of glucose levels in db/db mice. Format: in vivo. The following applies: Mus musculus, 168 h; 30 mg/kg daily oral gavage 7 days, male db/db mice; 100% = lean values; read-out: Glucose Normalization %. The protocol:
Five week old male diabetic (db/db) mice [C57BlKs/j-m +/+ Lepr(db), Jackson Laboratory, Bar Harbor, Me.] or lean littermates (db+) were housed 6 per cage (10″×20″×8″ with aspen chip bedding) with food (Purina 5015) and water available at all times. After an acclimation period of 2 weeks, animals were individually identified by ear notches, weighed, and bled via the tail vein for determination of initial glucose levels. Blood was collected (100 μl) from unfasted animals by wrapping each mouse in a towel, cutting the tip of the tail with a scalpel, and milking blood from the tail into a heparinized capillary tube (Fisher) balanced on the edge of the bench. Sample was discharged into a heparinized microtainer with gel separator (VWR) and retained on ice. Plasma was obtained after centrifugation at 4° C. and glucose measured immediately. Remaining plasma was frozen until the completion of the experiment, when glucose and triglycerides were assayed in all samples. Animals were grouped based on initial glucose levels and body weights. Beginning the following morning, mice were dosed daily by oral gavage for 7 days using a 20 gauge, 1½″ curved disposable feeding needle. Treatments were test compounds (30 mg/kg), a positive control agent (30 mg/kg) or vehicle [1% carboxymethylcellulose (w/v)/0.25% Tween80 (w/v); 0.3 ml/mouse]. On day 7, mice were weighed and bled (tail vein) 3 hours after dosing. Twenty-four hours after the 7th dose (i.e., day 8), animals were bled again (tail vein). Samples obtained from conscious animals on days 0, 7 and 8 were assayed for glucose. After the 24 hour bleed, animals were weighed and dosed for the final time. Three hours after dosing on day 8, animals were anesthetized by inhalation of isoflurane and blood obtained via cardiac puncture (0.5-0.7 ml). Whole blood was transferred to serum separator tubes, chilled on ice and permitted to clot. Serum was obtained after centrifugation at 4° C. and frozen until analysis for compound levels. After sacrifice by cervical dislocation, the liver, heart and epididymal fat pads were excised and weighed.
The animals dosed with vehicle had average triglycerides values of 170-230 mg/dl, which were reduced by the positive PPARγ control (70-120 mg/dl with a mean reduction of 50%). Male db/db mice were hyperglycemic (average glucose of 680-730 mg/dl on the 7th day of treatment), while lean animals had average glucose levels between 190-230 mg/dl.
Glucose was measured colorimetrically using commercially purchased reagents (Sigma #315-500). According to the manufacturers, the procedures were modified from published work (McGowan, M. W., Artiss, J. D., Strandbergh, D. R. & Zak, B. Clin Chem, 20:470-5 (1974) and Keston, A. Specific colorimetric enzymatic analytical reagents for glucose. Abstract of papers 129th Meeting ACS, 31C (1956).); and depend on the release of a mole of hydrogen peroxide for each mole of analyte, coupled with a color reaction first described by Trinder (Trinder, P. Determination of glucose in blood using glucose oxidase with an alternative oxygen acceptor. Ann Clin Biochem, 6:24 (1969)). The absorbance of the dye produced is linearly related to the analyte in the sample. The assays were further modified in our laboratory for use in a 96 well format. Standards (Sigma #339-11, Sigma #16-11, and Sigma #CC0534 for glucose triglycerides and total cholesterol, respectively), quality control plasma (Sigma # A2034), and samples (2 or 5 μl/well) were measured in duplicate using 200 μl of reagent. An additional aliquot of sample, pipetted to a third well and diluted in 200 μl water, provided a blank for each specimen. Plates were incubated at room temperature (18, 15, and 10 minutes for glucose, triglycerides and total cholesterol, respectively) on a plate shaker (DPC Micormix 5) and absorbance read at 500 nm (glucose and total cholesterol) or 540 nm (triglycerides) on a plate reader (Wallac Victor 1420). […]

For series [2], the system named is HuapoAI transgenic mice. The experiment in a line: Evaluation of triglyceride and cholesterol level in HuapoAI transgenic mice. Format: in vivo. Particulars: for change in vivo at 30 mg/kg / inhibition in vivo at 30 mg/kg: Mus musculus, 168 h, 30 mg/kg daily oral gavage 7 days; for change in vivo at 30 mg/kg: percent increase in FPLC HDLc area under the curve; for inhibition in vivo at 30 mg/kg: serum, male human apoAI transgenic mice, read-out: % Triglyceride Reduction. The method, then: Five to six week old male mice, transgenic for human apoAI [C57Bl/6-tgn(apoa1)lrub, Jackson Laboratory, Bar Harbor, Me.] were housed five per cage (10″×20″×8″ with aspen chip bedding) with food (Purina 5001) and water available at all times. After an acclimation period of 2 weeks, animals were individually identified by ear notches, weighed, and assigned to groups based on body weight. Beginning the following morning, mice were dosed daily by oral gavage for 7 days using a 20 gauge, 1½″ curved disposable feeding needle (Popper & Sons). Treatments were test compounds (30 mg/kg), a positive control (fenofibrate, 100 mg/kg) or vehicle [1% carboxymethylcellulose (w/v)/0.25% Tween80 (w/v); 0.2 ml/mouse]. Prior to termination on day 7, mice were weighed and dosed. Three hours after dosing, animals were anesthetized by inhalation of isoflurane (2-4%; Abbott Laboratories, Chicago, Ill.) and blood obtained via cardiac puncture (0.7-1.0 ml). Whole blood was transferred to serum separator tubes (Vacutainer SST), chilled on ice, and permitted to clot. Serum was obtained after centrifugation at 4° C. and frozen until analysis for triglycerides, total cholesterol, compound levels, and serum lipoprotein profile by fast protein liquid chromatography (FPLC) coupled to an inline detection system. After sacrifice by cervical dislocation, the liver, heart and epididymal fat pads were excised and weighed.
The animals dosed with vehicle had average triglycerides values of 60-80 mg/dl, which were reduced by the positive control fenofibrate (33-58 mg/dl with a mean reduction of 37%). The animals dosed with vehicle had average total serum cholesterol values of 140-180 mg/dl, which were increased by fenofibrate (190-280 mg/dl, with a mean elevation of 41%). […] Fenofibrate increased the amount of HDLc (68-96 v-sec with a mean percent increase of 48%).
Glucose was measured colorimetrically using commercially purchased reagents (Sigma #315-500). According to the manufacturers, the procedures were modified from published work (McGowan, M. W., Artiss, J. D., Strandbergh, D. R. & Zak, B. Clin Chem, 20:470-5 (1974) and Keston, A. Specific colorimetric enzymatic analytical reagents for glucose. Abstract of papers 129th Meeting ACS, 31C (1956).); and depend on the release of a mole of hydrogen peroxide for each mole of analyte, coupled with a color reaction first described by Trinder (Trinder, P. Determination of glucose in blood using glucose oxidase with an alternative oxygen acceptor. Ann Clin Biochem, 6:24 (1969)). The absorbance of the dye produced is linearly related to the analyte in the sample. The assays were further modified in our laboratory for use in a 96 well format. Standards (Sigma #339-11, Sigma #16-11, and Sigma #CC0534 for glucose triglycerides and total cholesterol, respectively), quality control plasma (Sigma # A2034), and samples (2 or 5 μl/well) were measured in duplicate using 200 μl of reagent. An additional aliquot of sample, pipetted to a third well and diluted in 200 μl water, provided a blank for each specimen. Plates were incubated at room temperature (18, 15, and 10 minutes for glucose, triglycerides and total cholesterol, respectively) on a plate shaker (DPC Micormix 5) and absorbance read at 500 nm (glucose and total cholesterol) or 540 nm (triglycerides) on a plate reader (Wallac Victor 1420). Sample absorbances were compared to a standard curve (100-800, 10-500, and 100-400 mg/dl for glucose, triglycerides and total cholesterol, respectively). Values for the quality control sample were always within the expected range and the coefficient of variation for samples was below 10%. All samples from an experiment were assayed at the same time to minimize inter-assay variability.
Serum lipoproteins were separated and cholesterol quantitated with an in-line detection system. Sample was applied to a Superose® 6 HR 10/30 size exclusion column (Amersham Pharmacia Biotech) and eluted with phosphate buffered saline-EDTA at 0.5 ml/min. […]

The target of series [3] is T1, huPPARγ (Homo sapiens, UniProt P37231).
T1 sequence (P37231 1-505): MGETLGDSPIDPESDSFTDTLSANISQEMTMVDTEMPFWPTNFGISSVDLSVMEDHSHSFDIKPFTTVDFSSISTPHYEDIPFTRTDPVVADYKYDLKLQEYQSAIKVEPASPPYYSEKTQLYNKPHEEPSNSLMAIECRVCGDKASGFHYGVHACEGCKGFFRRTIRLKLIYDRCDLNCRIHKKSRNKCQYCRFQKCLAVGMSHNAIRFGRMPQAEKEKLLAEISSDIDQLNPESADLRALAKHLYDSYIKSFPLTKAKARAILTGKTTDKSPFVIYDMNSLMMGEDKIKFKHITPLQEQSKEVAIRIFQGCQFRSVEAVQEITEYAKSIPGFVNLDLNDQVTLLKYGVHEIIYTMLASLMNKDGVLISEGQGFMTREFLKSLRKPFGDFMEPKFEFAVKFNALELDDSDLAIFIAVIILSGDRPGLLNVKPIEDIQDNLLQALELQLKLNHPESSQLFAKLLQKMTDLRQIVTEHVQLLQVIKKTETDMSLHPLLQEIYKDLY
T1 sequence (P19793 1-462 partner): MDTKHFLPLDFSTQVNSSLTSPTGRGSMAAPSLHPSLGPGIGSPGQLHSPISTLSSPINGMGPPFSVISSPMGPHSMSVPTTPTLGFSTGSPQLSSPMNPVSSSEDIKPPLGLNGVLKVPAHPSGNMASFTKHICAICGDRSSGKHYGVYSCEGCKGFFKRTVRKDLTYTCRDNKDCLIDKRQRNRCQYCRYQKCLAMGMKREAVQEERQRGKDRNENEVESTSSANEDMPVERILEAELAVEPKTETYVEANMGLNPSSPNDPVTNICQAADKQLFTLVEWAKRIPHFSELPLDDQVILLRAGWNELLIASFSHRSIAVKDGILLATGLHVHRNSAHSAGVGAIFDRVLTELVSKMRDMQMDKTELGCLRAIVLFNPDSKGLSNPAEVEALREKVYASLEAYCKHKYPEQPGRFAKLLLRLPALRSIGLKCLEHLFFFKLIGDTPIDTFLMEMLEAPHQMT
Briefly: Cotransfection assay in CV-1 cells, AOX PPRE luciferase reporter. The following applies: cotransfection efficacy relative to PPARγ agonist reference molecule. The series is classed as cell-based. Also noted: expressed in transfected cells; host or cells: CV-1 cells. The protocol:
(§1) DNA-dependent binding (ABCD binding) was carried out using SPA technology with PPAR receptors. Tritium-labeled PPARα and PPARγ agonists were used as radioligands for generating displacement curves and IC50 values with compounds of the invention. Cotransfection assays were carried out in CV-1 cells. The reporter plasmid contained an acylCoA oxidase (AOX) PPRE and TK promoter upstream of the luciferase reporter cDNA. Appropriate PPARs and RXRα were constitutively expressed using plasmids containing the CMV promoter. […] In order to eliminate such interference, a GAL4 chimeric system was used in which the DNA binding domain of the transfected PPAR was replaced by that of GAL4, and the GAL4 response element was utilized in place of the AOX PPRE. Cotransfection efficacy was determined relative to PPARα agonist and PPARγ agonist reference molecules. Efficacies were determined by computer fit to a concentration-response curve, or in some cases at a single high concentration of agonist (10 μM). For binding or cotransfection studies with receptors other than PPARs, similar assays were carried out using appropriate ligands, receptors, reporter constructs, etc., for that particular receptor.
(§2) These studies were carried out to evaluate the ability of compounds of the invention to bind to and/or activate various nuclear transcription factors, particularly huPPARα (“hu” indicates “human”) and huPPARγ. These studies provide in vitro data concerning efficacy and selectivity of compounds of the invention. Furthermore, binding and cotransfection data for compounds of the invention were compared with corresponding data for marketed compounds that act on either huPPARα or huPPARγ.
(§3) Binding and cotransfection data for representative compounds of the invention are compared with corresponding data for reference compounds in Table II.
(In a reporter assay the amount or activity of a reporter protein is the signal.)

Series [4] relates to huPPARα. The experiment in a line: Cotransfection assay in CV-1 cells, luciferase reporter (GAL4 chimeric system). The series is classed as cell-based, human. The following applies: cotransfection efficacy relative to PPARα agonist reference molecule. The protocol:
as §1, §2, §3

[5] abbreviates: 100 mg/kg daily oral gavage 7 days, versus vehicle.

As a reminder, the melting point is the temperature of the solid-liquid transition. The compound `Cc1oc(-c2ccc(C(N)=O)cc2)nc1CCOc1ccc(OC(C)(C)C(=O)O)cc1` [Example 14, 2-(4-{2-[2-(4-Carbamoylphenyl)-5-methyloxazol-4-yl]ethoxy}phenoxy)-2-methylpropionic acid] registered a melting point of 126 to 127 °C.

On to `Cc1oc(-c2ccccc2)nc1CCOc1ccc(OC(C)(Cc2ccccc2)C(=O)O)cc1` (stereo not shown) [Example 6, 2-Methyl-2-{4-[2-(5-methyl-2-phenyloxazol-4-yl)ethoxy]phenoxy}-3-phenylpropionic acid], for which, in series [1], the inhibition in vivo at 30 mg/kg was found to be 65%. In addition, in series [2], the change in vivo at 30 mg/kg came out at 20% and the inhibition in vivo at 30 mg/kg was found to be 35.4%.

Regarding `CC(C)OC(=O)C(C)(C)Oc1ccc(C(=O)c2ccc(Cl)cc2)cc1` [fenofibrate, reference compound], in series [2] (100 mg/kg daily oral gavage 7 days, FPLC of pooled sera, vehicle 47-62 v-sec), the HDLc peak area is on record as 68-96 v-sec. In addition, in series [2] (setting [5]), the “mean elevation of total serum cholesterol” value is 41%, the “mean percent increase of HDLc” value is recorded as 48% and the “mean reduction of triglycerides” value amounted to 37%. This compound also displayed an average triglycerides values in series [2] (100 mg/kg daily oral gavage 7 days, vehicle 60-80 mg/dl) of 33 to 58 mg/dL. Besides, the “average total serum cholesterol values” in series [2] (100 mg/kg daily oral gavage 7 days, vehicle 140-180 mg/dl) is 190 to 280 mg/dL.

Consider `CCc1cc(OC(C)(C)C(=O)O)ccc1OCCc1nc(-c2ccccc2)oc1C` [Example 31A, 2-{3-Ethyl-4-[2-(5-methyl-2-phenyloxazol-4-yl)ethoxy]phenoxy}-2-methylpropionic acid], for which the inhibition in vivo at 30 mg/kg in series [1] was 19%. In addition, in series [2], the change in vivo at 30 mg/kg is 98% and the inhibition in vivo at 30 mg/kg is -6.4%.

For `CC(C)(Oc1ccc(C(=O)c2ccc(Cl)cc2)cc1)C(=O)O` [Fenofibric acid, reference compound], in series [3], the “huPPARγ CTF Eff. (%)” value came to 0%. The “huPPARα CTF Eff. (%)” value in series [4] is reported as 16%.

Take `Cc1c(C)c2c(c(C)c1O)CCC(C)(COc1ccc(CC3SC(=O)NC3=O)cc1)O2` (stereo not shown) [Troglitazone, reference compound]: the “huPPARα CTF Eff. (%)” value in series [4] was found to be 0%.
